Where two headings read alike, the source gives them in different places. Some results are limits rather than exact numbers.

Consider 6 compounds from patent US9969823B1, “Synthesis and polymerization of vinyl triazolium ionic liquids” (United States Department of Energy, priority 2011, dated 2018).

This series in a line: Solubility of ionic liquid monomers (IL) and their polymers (PIL) in solvents. The series is classed as physicochemical. The following applies: for solubility: 10 mg/ml, IL (monomer), first symbol; for solubility in water: IL monomers.
[1] abbreviates: organic solvent or mixture, ACN, read-out: Solubility (IL/PIL) ACN.
Where [2] appears, read: organic solvent or mixture, Acetone, read-out: Solubility (IL/PIL) Acetone.
Where [3] appears, read: organic solvent or mixture, DCM, read-out: Solubility (IL/PIL) DCM.
[4] abbreviates: organic solvent or mixture, DMF, read-out: Solubility (IL/PIL) DMF.
[5] abbreviates: organic solvent or mixture, DMSO, read-out: Solubility (IL/PIL) DMSO.
[6] abbreviates: organic solvent or mixture, Ethyl acetate, read-out: Solubility (IL/PIL) Ethyl acetate.
The mark [7] stands for this setting: organic solvent or mixture, Hexanes, read-out: Solubility (IL/PIL) Hexanes.
Setting [8] is: organic solvent or mixture, MeOH, read-out: Solubility (IL/PIL) MeOH.
Setting [9] is: water, H2O, read-out: Solubility (IL/PIL) H2O.

Regarding `C=Cc1cn(Cc2ccccc2)n[n+]1C` [BMVT Tf2N, 1-Benzyl-3-methyl-4-vinyl-triazolium bis(trifluoromethansulfonyl)amide], the solubility was above 10000 µg/mL under setting [1]; above 10000 µg/mL under setting [2]; above 10000 µg/mL under setting [3]; above 10000 µg/mL under setting [4]; above 10000 µg/mL under setting [5]; above 10000 µg/mL under setting [6]. Further, the solubility is below 10000 µg/mL under setting [7], above 10000 µg/mL under setting [8] and below 10000 µg/mL under setting [9].
As for `C=Cc1cn(CCCCCCCCCC)n[n+]1C` [DMVT, 1-Decyl-3-methyl-4-vinyl-triazolium bis(trifluoromethansulfonyl)amide], the solubility is above 10000 µg/mL under setting [1]; above 10000 µg/mL under setting [2]; below 10000 µg/mL under setting [3]; above 10000 µg/mL under setting [4]; above 10000 µg/mL under setting [5]; above 10000 µg/mL under setting [6]. The solubility was below 10000 µg/mL under setting [7], above 10000 µg/mL under setting [8] and below 10000 µg/mL under setting [9].
As to `C=Cc1cn(CCO)n[n+]1C` [EtOHMVT, 2-(3-Methyl-4vinyl-triazolium-1-yl)ethanol bis(trifluoromethansulfonyl)amide], the solubility in water entry (water) is recorded as “soluble”. Also, the solubility under setting [1] was above 10000 µg/mL; the solubility under setting [2] was above 10000 µg/mL; the solubility under setting [3] is above 10000 µg/mL; the solubility under setting [4] was above 10000 µg/mL; the solubility under setting [5] is above 10000 µg/mL; the solubility under setting [6] is above 10000 µg/mL. Further, the solubility reads like this: under setting [7], below 10000 µg/mL; under setting [8], above 10000 µg/mL; under setting [9], above 10000 µg/mL.
As to `C=Cc1cn(CCCCCC)n[n+]1C` [HMVT, 1-Hexyl-3-methyl-4-vinyl-triazolium bis(trifluoromethansulfonyl)amide], the solubility under setting [1] was above 10000 µg/mL; the solubility under setting [2] is above 10000 µg/mL; the solubility under setting [3] was above 10000 µg/mL; the solubility under setting [4] is above 10000 µg/mL; the solubility under setting [5] was above 10000 µg/mL; the solubility under setting [6] is above 10000 µg/mL. Moreover, the solubility by setting is: under setting [7], below 10000 µg/mL; under setting [8], above 10000 µg/mL; under setting [9], below 10000 µg/mL.
As for `C=Cc1cn(-c2ccccc2)n[n+]1C` [PMVT Tf2N, 1-Phenyl-3-methyl-4-vinyl-triazolium bis(trifluoromethansulfonyl)amide], the solubility under setting [1] is above 10000 µg/mL; the solubility under setting [2] was above 10000 µg/mL; the solubility under setting [3] was above 10000 µg/mL; the solubility under setting [4] was above 10000 µg/mL; the solubility under setting [5] is above 10000 µg/mL; the solubility under setting [6] is above 10000 µg/mL. Moreover, the solubility under setting [7] was below 10000 µg/mL, the solubility under setting [8] is above 10000 µg/mL and the solubility under setting [9] is below 10000 µg/mL.
Take `C=Cc1cn(CCOCCOCCOC)n[n+]1C` [TEGMVT, 1-TEG-3-methyl-4-vinyl-triazolium bis(trifluoromethansulfonyl)amide]: for the setting “water”, the solubility in water result is recorded as “soluble”. Further, the solubility reads like this: under setting [1], above 10000 µg/mL; under setting [2], above 10000 µg/mL; under setting [3], above 10000 µg/mL; under setting [4], above 10000 µg/mL; under setting [5], above 10000 µg/mL; under setting [6], above 10000 µg/mL. The solubility reads like this: under setting [7], below 10000 µg/mL; under setting [8], above 10000 µg/mL; under setting [9], above 10000 µg/mL.
